The text below walks through data of ChEMBL document CHEMBL1150890, “Cyclotheonamides E2 and E3, new potent serine protease inhibitors from the marine sponge of the genus Theonella” (J Nat Prod, 1998).

Starred links: 1 amine or outer side, 2 acyl side, 3 side chain; linkers in the order of their positions; H or OH if unused. Positions of bridges follow the written chain, without caps; N, C: chain ends. Non-standard residues stand in square brackets, D forms with d. Residues, ends and D or L forms follow the SMILES beside them. *: point of attachment. Arg(ψCOCO) = N=C(N)NCCC[C@H](N[*:1])C(=O)C(=O)[*:2]; X1 = O=C(/C=C/[C@H](Cc1ccc(O)cc1)N[*:1])[*:2]; aIle = CC[C@@H](C)[C@H](N)C(=O)O; Dap = NC[C@H](N)C(=O)O; PhAc = O=C(Cc1ccccc1)*

Assay [1] addresses Prothrombin (Homo sapiens, UniProt P00734). As to the kind of experiment: Inhibition of thrombin.
Assay [2] in a line: Inhibition of trypsin.

For orientation: IC50 means the concentration that inhibits the measured activity by half. A high value points to a need for much substance. Consider `N=C(N)NCCC[C@@H]1NC(=O)[C@@H]2CCCN2C(=O)[C@@H](NC=O)CNC(=O)/C=C/[C@H](Cc2ccc(O)cc2)NC(=O)[C@@H](Cc2ccccc2)NC(=O)C1=O` [CYCLOTHEONAMIDE A], for which the values for the IC50 in assay [1] and in assay [2] were 23 nM and 16 nM, respectively.
For `CC[C@H](C)[C@H]1NC(=O)C(=O)[C@H](CCCNC(=N)N)NC(=O)[C@@H]2CCCN2C(=O)[C@@H](NC(=O)[C@H](C)NC(=O)c2ccccc2)CNC(=O)/C=C/[C@H](Cc2ccc(O)cc2)NC1=O` [CYCLOTHEONAMIDE E2], the IC50 in assay [1] was 13 nM; in assay [2] it was 55 nM.
As for `CC[C@H](C)[C@H]1NC(=O)C(=O)[C@H](CCCNC(=N)N)NC(=O)[C@@H]2CCCN2C(=O)[C@@H](NC(=O)[C@H](C)NC(=O)CC(C)C)CNC(=O)/C=C/[C@H](Cc2ccc(O)cc2)NC1=O` [CYCLOTHEONAMIDE E3], the IC50 was 9.5 nM in assay [1] and 52 nM in assay [2].
Taken in the same sequence, the figures for `CC[C@@H](C)[C@@H]1NC(=O)C(=O)[C@H](CCCNC(=N)N)NC(=O)[C@@H]2CCCN2C(=O)[C@@H](NC(=O)[C@H](C)NC(=O)Cc2ccccc2)CNC(=O)/C=C/[C@H](Cc2ccc(O)cc2)NC1=O` [CYCLOTHEONAMIDE E] (PhAc-A[Dap]P[Arg(ψCOCO)][aIle][X1]; lactam 2-C) were 2.9 nM and 30 nM.
